How the values were obtained:
S. aureus SH1000 = assay: MIC / growth inhibition assay (end-point OD600), single agent; type: cell-based; settings: Staphylococcus aureus, SH1000, 18 h, end-point OD600 after 18 h, read-out: EC50 S. aureus (SH1000) Compound only
Excerpt: (§1) Minimum inhibitory concentration (MIC) assays were used to evaluate the antimicrobial activity of compounds against Gram-negative (E. coli) and Gram-positive (S. aureus) bacteria. […] Gram-positive bacteria are more susceptible to small-molecule penetration, and compounds were therefore assessed for growth inhibition against the S. aureus SH1000 strain.
(§2) 2.1. Biological and biochemical methods
(§3) Bacterial strains and culture conditions
(§4) Strains utilized in the present study are detailed in Table S1. All strains used were cultivated on Mueller Hinton Agar (MHA) and grown to stationary-phase in Mueller Hinton Broth (MHB) at 37 °C for 16 h, with shaking at 180 r.p.m.
(§5) Minimum inhibitory concentration (MIC) assays
(§6) MIC assays were performed in 96 well plates and MICs were determined in accordance with the broth microdilution protocol.4 Strains grown to stationary-phase in MHB were adjusted to 5 x 10^5 colony-forming units (CFU)/mL in fresh MHB (100 µL/well) supplemented with DMSO to ensure a constant concentration of 0.5% (v/v) DMSO across all experiments. Where […]
(§7) or H2O2 (200 μM). Test compounds were prepared as two-fold serial dilutions. Cells were […]
(§8) as the lowest concentration with no visible bacterial growth, and the optical density at 600 nm (OD600) was recorded. OD600 measurements were background corrected against no-inocula control and normalized to DMSO control for dose-response analysis. The EC50 value mean and SEM were calculated from individual EC50 values from three biological replicates. […]

E. coli K-12 BW25113 = assay: as above; type: cell-based, Escherichia coli; settings: for EC50: Escherichia coli, BW25113, end-point OD600 after 18 h, read-out: EC50 E. coli (K12 BW25113) Compound only
Excerpt: as §1, §2, §3, §4, §5, §6, §7, §8

E. coli topoisomerase IV = biological target: T1, E. coli topoisomerase IV (Escherichia coli, UniProt P0AFI2+P20083); assay: Topoisomerase IV supercoiling relaxation assay (pQE80L); type: biochemical; settings: at 12.5 µM (compounds)
T1 construct: purchased Inspiralis
T1 sequence (P0AFI2 whole entry): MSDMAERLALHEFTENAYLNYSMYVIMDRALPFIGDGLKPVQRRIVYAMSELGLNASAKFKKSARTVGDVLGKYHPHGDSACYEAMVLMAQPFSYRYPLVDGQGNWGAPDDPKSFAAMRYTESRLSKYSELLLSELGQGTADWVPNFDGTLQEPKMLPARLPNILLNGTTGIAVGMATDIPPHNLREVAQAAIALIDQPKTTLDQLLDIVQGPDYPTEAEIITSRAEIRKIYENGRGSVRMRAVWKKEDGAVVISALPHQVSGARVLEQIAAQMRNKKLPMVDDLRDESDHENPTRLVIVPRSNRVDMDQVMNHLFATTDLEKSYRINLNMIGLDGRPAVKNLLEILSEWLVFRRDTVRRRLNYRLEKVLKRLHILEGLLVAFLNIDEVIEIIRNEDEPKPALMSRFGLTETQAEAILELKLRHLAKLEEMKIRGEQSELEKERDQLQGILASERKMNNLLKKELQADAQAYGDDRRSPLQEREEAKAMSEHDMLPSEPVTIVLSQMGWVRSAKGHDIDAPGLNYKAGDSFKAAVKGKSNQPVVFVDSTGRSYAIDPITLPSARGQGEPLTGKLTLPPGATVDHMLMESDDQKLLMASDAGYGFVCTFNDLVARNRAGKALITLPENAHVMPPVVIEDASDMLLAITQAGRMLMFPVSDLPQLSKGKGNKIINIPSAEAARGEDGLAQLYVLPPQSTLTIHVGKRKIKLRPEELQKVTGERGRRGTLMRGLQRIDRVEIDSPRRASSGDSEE
T1 sequence (P20083 whole entry): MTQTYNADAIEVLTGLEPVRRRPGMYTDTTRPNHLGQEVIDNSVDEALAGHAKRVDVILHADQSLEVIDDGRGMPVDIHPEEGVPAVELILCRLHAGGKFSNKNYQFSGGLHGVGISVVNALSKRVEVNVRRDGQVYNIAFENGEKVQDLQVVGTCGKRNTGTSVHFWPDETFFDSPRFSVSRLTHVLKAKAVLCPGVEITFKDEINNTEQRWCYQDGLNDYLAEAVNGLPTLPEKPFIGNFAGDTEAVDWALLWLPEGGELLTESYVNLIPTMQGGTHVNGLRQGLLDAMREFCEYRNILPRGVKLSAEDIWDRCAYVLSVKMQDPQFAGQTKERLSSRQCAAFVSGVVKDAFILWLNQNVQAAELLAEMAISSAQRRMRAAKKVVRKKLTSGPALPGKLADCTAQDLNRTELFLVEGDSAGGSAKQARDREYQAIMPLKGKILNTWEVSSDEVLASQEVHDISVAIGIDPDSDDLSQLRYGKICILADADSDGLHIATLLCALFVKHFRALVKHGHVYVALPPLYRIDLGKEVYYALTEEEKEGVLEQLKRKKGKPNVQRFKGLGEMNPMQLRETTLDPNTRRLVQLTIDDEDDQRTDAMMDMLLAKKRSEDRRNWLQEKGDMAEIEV
Experimental: 2.1. Biological and biochemical methods […]
E. coli DNA gyrase supercoiling assay (Inspiralis) was performed according to the manufacturer’s instructions, ensuring a constant concentration of 1% (v/v) DMSO. Samples were separated on a 1% (w/v) agarose gel prepared with Tris/Borate/EDTA (TBE) buffer (1 M Tris-borate, 20 mM EDTA, pH 8.0). Electrophoresis was performed at 100 V until the bromophenol blue dye had run >6 cm to ensure resolution of relaxed and supercoiled DNA.
The gel was stained with SYBR Safe DNA gel stain (Invitrogen, 1:10,000 dilution in TBE) for 30 min, and visualized on a Syngene Gel Doc system. Band intensity was quantified using ImageJ software and the fraction of supercoiled plasmid was determined as the ratio of the density of the supercoiled band to the total density. Values were background corrected against the no-gyrase control and normalized to DMSO control for dose-response analysis.
E. coli topoisomerase IV supercoiling relaxation assay (Inspiralis) was performed according to the manufacturer’s instructions, ensuring a constant concentration of 1% (v/v) DMSO.
Supercoiled pQE80L was prepared via plasmid purification and used as the substrate for the reaction. Reactions were analyzed as described for DNA gyrase assays. […]

JE2 = assay: Synergy experiments with CFX (growth rate method, Chou-Talalay, CompuSyn); type: cell-based, Staphylococcus aureus; settings: for Combination index (CI) with CFX: JE2, constant-ratio combination with CFX, CompuSyn; for EC50: Staphylococcus aureus, JE2, rate of exponential growth phase over 17 h at 37 °C
Experimental: A more precise method to determine EC50 values for individual compounds and combinations was used to increase accuracy for CI calculations. […]
Synergy experiments were performed as described for MIC assays. Two-fold serial dilutions […]
carried out at 37 °C, with shaking at 220 r.p.m. OD600 was recorded every 30 min over a 17 h period. Measurements were background corrected against the no-inocula control before a growth curve of OD600 against time was constructed. The gradient of the exponential phase was obtained by linear regression. Gradients were normalized against the smallest and largest value within the respective data set prior to analysis with the CompuSyn software (http://www.combosyn.com/) to calculate combination index (CI) and dose-reduction index (DRI) values for each drug combination. […]

[1] = system: methicillin-resistant S. aureus (MRSA, USA300 JE2); assay: Ciprofloxacin (CFX) potentiation in MRSA growth inhibition assay; type: cell-based, Staphylococcus aureus; settings: for EC50: read-out: EC50 S. aureus (USA300 JE2) Compound + CFX (9.4 μM), in presence of half-MIC CFX (9.4 μM)
Experimental: as §2, §3, §4, §5, §6, §7, §8

[2] = system: methicillin-resistant S. aureus (MRSA, USA300 JE2); assay: MIC / growth inhibition assay (end-point OD600), single agent; type: cell-based, Staphylococcus aureus; settings: for fold less potent against JE2 compared to SH1000: ratio of single-agent EC50 values
Excerpt: as §1
Methicillin-resistant S. aureus (MRSA) is a multi-drug resistant bacterium responsible for a large number of nosocomial infections.[34] The emergence of community associated (CA)-MRSA capable of infection of healthy individuals highlights its significance and clinical relevance.[35]
as §2, §3, §4, §5, §6, §7, §8

MRSA (USA300 JE2) [3] = assay: Growth inhibition in the presence of H2O2; type: cell-based, Staphylococcus aureus; settings: read-out: EC50 Compound + H2O2 (200 µM); MRSA USA300 JE2, H2O2 200 µM
Experimental: (§9) The analogue panel was further tested for potentiation of alternative DNA-damaging agents Mitomycin-C (MMC) and hydrogen peroxide (Table S2), which function via alkylation and oxidization DNA bases, respectively.
as §2, §3, §4, §5, §6, §7, §8

MRSA (USA300 JE2) [4] = assay: Growth inhibition in the presence of mitomycin-C; type: cell-based, Staphylococcus aureus; settings: read-out: EC50 Compound + MMC (0.40 µM); MRSA USA300 JE2, mitomycin-C 0.40 µM
Experimental: as §9, §2, §3, §4, §5, §6, §7, §8

[5] = Staphylococcus aureus, 18 h, read-out: EC50 S. aureus (USA300 JE2) Compound only, single agent, end-point OD600 after 18 h

SMILES	EC50 (S. aureus SH1000) [µM]	EC50 (E. coli K-12 BW25113) [µM]	Inhibition of topoisomerase IV (E. coli topoisomerase IV)	Combination index (CI) with CFX (JE2)	EC50 (JE2) [µM]	EC50 [1] [µM]	EC50 [2, 5] [µM]	EC50 (MRSA (USA300 JE2) [3]) [µM]	EC50 (MRSA (USA300 JE2) [4]) [µM]	fold increase in potency of para- over meta-substituted analogue, potentiation by CFX ([1]; JE2 + CFX, 4 vs 1, 10 vs 7, 14 vs 13) [fold]	fold increase in potency against JE2 in the presence of CFX compared to single agent ([1]; CFX 9.4 µM) [fold]	EC50 ([2]; read-out: EC50 S. aureus (USA300 JE2) Compound only, single agent, end-point OD600 after 18 h) [µM]	fold less potent against JE2 compared to SH1000 [2] [fold]	fold higher potency than other CFX derivatives in E. coli (E. coli K-12 BW25113)	fold more potent against E. coli than SH1000 (E. coli K-12 BW25113) [fold]
CCn1cc(C(=O)O)c(=O)c2cnc(N3CCN(C(=S)Nc4cccc(C(F)(F)F)c4)CC3)nc21 [Compound 1, reference compound]	8.2 ± 1.7	> 100	not inhibited and not	1.0	5.9 ± 0.2	1.1 ± 0.1	6.9 ± 0.6	6.5 ± 0.1	3.3 ± 0.6						
CCn1cc(C(=O)O)c(=O)c2cnc(N3CCN(C(=S)Nc4cccc(F)c4)CC3)nc21 [Compound 2]	6.9 ± 0.4	> 100				0.73 ± 0.12	27 ± 0.4	24 ± 3	21 ± 2.2						
CCn1cc(C(=O)O)c(=O)c2cnc(N3CCN(C(=S)Nc4cc(C(F)(F)F)cc(C(F)(F)F)c4)CC3)nc21 [Compound 3]	3.6 ± 0.4	> 100				0.62 ± 0.09	2.7 ± 0.6	2.4 ± 0.2	1.5 ± 0.1						
CCn1cc(C(=O)O)c(=O)c2cnc(N3CCN(C(=S)Nc4ccc(C(F)(F)F)cc4)CC3)nc21 [Compound 4]	5.2 ± 1.1	> 100				0.24 ± 0.03	4 ± 0.3	4.7 ± 0.9	2.9 ± 0.2	~5					
CCn1cc(C(=O)O)c(=O)c2cnc(N3CCN(C(=S)Nc4cccc(Cl)c4)CC3)nc21 [Compound 5]	~6	> 100	not	0.96	6.2 ± 0.1	0.31 ± 0.02	~6	8.4 ± 0.2	4.5 ± 1.2		~20	6.9 ± 0.1			
CCn1cc(C(=O)O)c(=O)c2cnc(N3CCN(C(=S)Nc4cc(Cl)cc(Cl)c4)CC3)nc21 [Compound 6]	2.3 ± 0.3	> 100				0.12 ± 0.04	1.8 ± 0.1	2.5 ± 0.4	1.5						
O=C(O)c1cn(C2CC2)c2cc(N3CCN(C(=S)Nc4cccc(C(F)(F)F)c4)CC3)c(F)cc2c1=O [Compound 7]	0.19 ± 0.06	0.41				0.14	3.7 ± 0.5	5.5 ± 0.6	2.8 ± 0.4				> 20		
O=C(O)c1cn(C2CC2)c2cc(N3CCN(C(=S)Nc4cccc(F)c4)CC3)c(F)cc2c1=O [Compound 8]	0.08 ± 0.01	0.24 ± 0.03				0.22 ± 0.05	4.8 ± 0.9	4.6 ± 0.4	3.4 ± 0.9				> 20	approximately 2 fold	
O=C(O)c1cn(C2CC2)c2cc(N3CCN(C(=S)Nc4cc(C(F)(F)F)cc(C(F)(F)F)c4)CC3)c(F)cc2c1=O [Compound 9]	1.5 ± 0.3	0.39 ± 0.01				0.47 ± 0.07	3.5 ± 0.4	2.6 ± 0.3	1.8 ± 0.3						~5
O=C(O)c1cn(C2CC2)c2cc(N3CCN(C(=S)Nc4cccc(Cl)c4)CC3)c(F)cc2c1=O [Compound 11]	0.12 ± 0.04	0.46 ± 0.1				0.084 ± 0.007	2.8 ± 0.1	3.2	2.2 ± 0.6				> 20		

From paper PMC6892255, “Identification of a potent small-molecule inhibitor of bacterial DNA repair that potentiates quinolone antibiotic activity in methicillin-resistant Staphylococcus aureus^” (Bioorganic & Medicinal Chemistry, 2019)
